Experimental data reported in the supplement of paper PMC10307832.

Experiments:
Test in all cases: relative viability (nuclei count vs DMSO), 5 days (fraction); higher = more cells survive
VE-821 + OSI-027 = compound: CS(=O)(=O)c1ccc(-c2cnc(N)c(C(=O)Nc3ccccc3)n2)cc1 [VE-821] + COc1cccc2cc(-c3nc([C@H]4CC[C@H](C(=O)O)CC4)n4ncnc(N)c34)[nH]c12 [OSI-027] (partner 0.5 µM)
In short: (§1)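 Lung cancer cell lines in 1536-well plates got either a single drug or a fixed anchor-drug dose together with five library-drug doses (not always all listed) in √10 steps, by pin tool, on the day after seeding. Nuclei were counted after 5 days, and relative viability is the treated-to-vehicle ratio of nuclei counts. Values are medians of duplicate plates.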

VE-821 + Tozasertib = compound: CS(=O)(=O)c1ccc(-c2cnc(N)c(C(=O)Nc3ccccc3)n2)cc1 [VE-821] + Cc1cc(Nc2cc(N3CCN(C)CC3)nc(Sc3ccc(NC(=O)C4CC4)cc3)n2)n[nH]1 [Tozasertib] (partner 0.1 µM)
In short: as §1

Vismodegib + Phenformin = compound: CS(=O)(=O)c1ccc(C(=O)Nc2ccc(Cl)c(-c3ccccn3)c2)c(Cl)c1 [Vismodegib] + N=C(N)NC(=N)NCCc1ccccc1 [Phenformin] (partner 250 µM)
In short: as §1

[1] = compound: N#CC[C@H](C1CCCC1)n1cc(-c2ncnc3[nH]ccc23)cn1 [Ruxolitinib] + CC(=O)c1c(C)c2cnc(Nc3ccc(N4CCNCC4)cn3)nc2n(C2CCCC2)c1=O [Palbociclib] (partner 0.5 µM)
In short: as §1

Cell Line: UMC-11
- relative viability (VE-821 + OSI-027; first compound 0.08 µM): 0.507
- relative viability (VE-821 + OSI-027; first compound 0.253 µM): 0.436
- relative viability (VE-821 + OSI-027; first compound 0.8 µM): 0.508
- relative viability (VE-821 + OSI-027; first compound 2.53 µM): 0.477
- relative viability (VE-821 + OSI-027; first compound 8 µM): 0.325
- relative viability (VE-821 + Tozasertib; first compound 0.08 µM): 0.203
- relative viability (VE-821 + Tozasertib; first compound 0.253 µM): 0.195
- relative viability (VE-821 + Tozasertib; first compound 0.8 µM): 0.223
- relative viability (VE-821 + Tozasertib; first compound 2.53 µM): 0.2
- relative viability (VE-821 + Tozasertib; first compound 8 µM): 0.203
- relative viability (Vismodegib + Phenformin; first compound 0.08 µM): 0.286
- relative viability (Vismodegib + Phenformin; first compound 0.253 µM): 0.311
- relative viability (Vismodegib + Phenformin; first compound 0.8 µM): 0.301
- relative viability (Vismodegib + Phenformin; first compound 2.53 µM): 0.283
- relative viability (Vismodegib + Phenformin; first compound 8 µM): 0.284
- relative viability ([1]; first compound 0.08 µM): 0.345
- relative viability ([1]; first compound 0.253 µM): 0.399
- relative viability ([1]; first compound 0.8 µM): 0.329
- relative viability ([1]; first compound 2.53 µM): 0.366
- relative viability ([1]; first compound 8 µM): 0.362
